Reference: US20250136595A1, “ACYLATED HETEROCYCLIC QUINAZOLINE DERIVATIVES AS INHIBITORS OF ERBB2” (Enliven Inc., priority 2022, published 2025)
Structures can show the parent of a compound that is named as a salt.

How the values were obtained:
[1] = biological target: T1, phosphorylated ERBB2 (pERBB2) (Homo sapiens, UniProt P04626); experiment: Detection of phosphorylated ERBB2 (pERBB2) by ELISA in BT-474 cells; type: cell-based; conditions: four hour incubation with compound
T1 construct: endogenous in cells; host or cells: BT-474
T1 sequence (P04626 23-1255): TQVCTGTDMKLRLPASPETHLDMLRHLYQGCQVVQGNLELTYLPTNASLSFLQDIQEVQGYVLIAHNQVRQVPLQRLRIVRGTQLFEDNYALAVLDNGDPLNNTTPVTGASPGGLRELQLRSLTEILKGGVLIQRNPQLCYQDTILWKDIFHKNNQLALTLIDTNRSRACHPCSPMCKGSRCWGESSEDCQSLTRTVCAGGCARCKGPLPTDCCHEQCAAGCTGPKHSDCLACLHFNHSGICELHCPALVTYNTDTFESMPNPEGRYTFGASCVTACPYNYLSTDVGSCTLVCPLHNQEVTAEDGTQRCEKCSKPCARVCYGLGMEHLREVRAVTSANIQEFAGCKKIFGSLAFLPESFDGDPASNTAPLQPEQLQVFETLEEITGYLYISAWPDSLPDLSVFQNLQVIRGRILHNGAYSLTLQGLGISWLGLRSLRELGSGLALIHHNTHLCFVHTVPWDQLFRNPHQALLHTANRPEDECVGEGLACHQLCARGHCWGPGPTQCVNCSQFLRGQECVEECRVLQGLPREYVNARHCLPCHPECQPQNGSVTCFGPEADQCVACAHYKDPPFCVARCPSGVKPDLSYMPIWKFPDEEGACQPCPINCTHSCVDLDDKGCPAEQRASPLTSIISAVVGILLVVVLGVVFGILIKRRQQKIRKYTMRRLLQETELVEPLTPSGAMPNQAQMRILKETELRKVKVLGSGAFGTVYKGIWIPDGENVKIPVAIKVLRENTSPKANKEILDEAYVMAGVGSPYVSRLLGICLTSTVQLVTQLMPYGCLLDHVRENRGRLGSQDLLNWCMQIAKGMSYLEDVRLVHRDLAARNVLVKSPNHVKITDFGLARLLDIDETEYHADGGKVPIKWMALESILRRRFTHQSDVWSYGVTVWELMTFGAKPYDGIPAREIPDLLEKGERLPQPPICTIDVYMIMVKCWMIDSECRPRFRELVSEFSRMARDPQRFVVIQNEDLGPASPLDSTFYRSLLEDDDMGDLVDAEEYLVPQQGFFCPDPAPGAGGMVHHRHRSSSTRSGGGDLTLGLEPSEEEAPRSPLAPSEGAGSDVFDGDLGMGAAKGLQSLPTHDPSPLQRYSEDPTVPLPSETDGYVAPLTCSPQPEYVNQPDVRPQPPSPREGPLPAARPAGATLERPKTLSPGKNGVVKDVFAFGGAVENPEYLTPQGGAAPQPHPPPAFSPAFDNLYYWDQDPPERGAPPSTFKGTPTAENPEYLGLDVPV
In short: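 BT-474 cells treated 4 h at 37 °C, 5% CO2 with four-fold dilutions (10 μM to 0.01 nM final). Lysates analysed by ELISA for pERBB2, TMB read at OD 450 nm. % relative activity normalised to no-cell (low) and 0.1% DMSO-treated (high) controls.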

[2] = biological target: T2, phosphorylated EGFR (pEGFR) (Homo sapiens, UniProt P00533); experiment: Detection of phosphorylated EGFR (pEGFR) in EGF-stimulated A431 cells (AlphaLISA); type: cell-based; conditions: A431 cells (10% FBS), 4 hours incubation, EGF 30 ng/mL for 10 minutes
T2 construct: performed to measure phosphorylated EGFR levels using A431 cells; endogenous in cells; host or cells: A431
T2 sequence (P00533 25-1210): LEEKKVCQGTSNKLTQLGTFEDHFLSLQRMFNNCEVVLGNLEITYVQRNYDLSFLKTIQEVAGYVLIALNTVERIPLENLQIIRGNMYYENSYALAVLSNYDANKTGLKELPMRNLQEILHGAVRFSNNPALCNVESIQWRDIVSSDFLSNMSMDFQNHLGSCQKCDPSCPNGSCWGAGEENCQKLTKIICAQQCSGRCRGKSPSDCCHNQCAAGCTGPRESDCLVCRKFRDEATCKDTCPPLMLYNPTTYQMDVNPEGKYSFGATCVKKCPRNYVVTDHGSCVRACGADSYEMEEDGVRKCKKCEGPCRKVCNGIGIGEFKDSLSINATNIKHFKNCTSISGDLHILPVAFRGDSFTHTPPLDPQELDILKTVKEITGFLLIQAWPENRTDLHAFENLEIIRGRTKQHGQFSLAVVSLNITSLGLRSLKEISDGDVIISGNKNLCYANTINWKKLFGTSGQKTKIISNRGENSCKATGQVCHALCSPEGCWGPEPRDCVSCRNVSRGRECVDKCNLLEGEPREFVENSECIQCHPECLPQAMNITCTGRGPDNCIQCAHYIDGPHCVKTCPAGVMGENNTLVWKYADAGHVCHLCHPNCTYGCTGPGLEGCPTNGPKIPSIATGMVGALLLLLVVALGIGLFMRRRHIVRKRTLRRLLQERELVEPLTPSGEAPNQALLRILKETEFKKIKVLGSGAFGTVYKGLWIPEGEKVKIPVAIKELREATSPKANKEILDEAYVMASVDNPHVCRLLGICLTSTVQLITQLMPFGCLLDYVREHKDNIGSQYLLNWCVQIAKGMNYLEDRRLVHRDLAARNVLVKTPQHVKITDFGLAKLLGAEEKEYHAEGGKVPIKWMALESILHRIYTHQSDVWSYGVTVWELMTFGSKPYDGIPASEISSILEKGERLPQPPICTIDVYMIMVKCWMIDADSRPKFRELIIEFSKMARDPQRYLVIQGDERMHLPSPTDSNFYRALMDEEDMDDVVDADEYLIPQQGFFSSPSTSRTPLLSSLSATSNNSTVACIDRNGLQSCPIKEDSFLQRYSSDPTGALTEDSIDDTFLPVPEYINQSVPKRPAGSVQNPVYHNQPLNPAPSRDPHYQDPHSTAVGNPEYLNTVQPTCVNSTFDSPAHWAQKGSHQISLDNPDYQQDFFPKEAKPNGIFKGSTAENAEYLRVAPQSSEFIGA
In short: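 Cells in 10% FBS treated with compound 4 h at 37° C., then stimulated 10 min with 30 ng/mL EGF, lysed, and pEGFR measured by AlphaLISA. Inhibition normalized to DMSO and staurosporine controls; IC50 from four-parameter logistic fit.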

Ba/F3 ERBB2 YVMA = Ba/F3 ERBB2 YVMA (Homo sapiens, UniProt P04626, DUP772-775, cells depend on it); experiment: Cell viability assay (CellTiter Glo) in Ba/F3 cells engineered to express ERBB2 YVMA; type: cell-based, mouse; conditions: Ba/F3 cells expressing human ERBB2 YVMA mutant, 72 hours, % viability, read-out: Ba/F3 ERBB2 YVMA IC50
Sequence of Ba/F3 ERBB2 YVMA (P04626 with tags, fused parts or gaps DUP772-775): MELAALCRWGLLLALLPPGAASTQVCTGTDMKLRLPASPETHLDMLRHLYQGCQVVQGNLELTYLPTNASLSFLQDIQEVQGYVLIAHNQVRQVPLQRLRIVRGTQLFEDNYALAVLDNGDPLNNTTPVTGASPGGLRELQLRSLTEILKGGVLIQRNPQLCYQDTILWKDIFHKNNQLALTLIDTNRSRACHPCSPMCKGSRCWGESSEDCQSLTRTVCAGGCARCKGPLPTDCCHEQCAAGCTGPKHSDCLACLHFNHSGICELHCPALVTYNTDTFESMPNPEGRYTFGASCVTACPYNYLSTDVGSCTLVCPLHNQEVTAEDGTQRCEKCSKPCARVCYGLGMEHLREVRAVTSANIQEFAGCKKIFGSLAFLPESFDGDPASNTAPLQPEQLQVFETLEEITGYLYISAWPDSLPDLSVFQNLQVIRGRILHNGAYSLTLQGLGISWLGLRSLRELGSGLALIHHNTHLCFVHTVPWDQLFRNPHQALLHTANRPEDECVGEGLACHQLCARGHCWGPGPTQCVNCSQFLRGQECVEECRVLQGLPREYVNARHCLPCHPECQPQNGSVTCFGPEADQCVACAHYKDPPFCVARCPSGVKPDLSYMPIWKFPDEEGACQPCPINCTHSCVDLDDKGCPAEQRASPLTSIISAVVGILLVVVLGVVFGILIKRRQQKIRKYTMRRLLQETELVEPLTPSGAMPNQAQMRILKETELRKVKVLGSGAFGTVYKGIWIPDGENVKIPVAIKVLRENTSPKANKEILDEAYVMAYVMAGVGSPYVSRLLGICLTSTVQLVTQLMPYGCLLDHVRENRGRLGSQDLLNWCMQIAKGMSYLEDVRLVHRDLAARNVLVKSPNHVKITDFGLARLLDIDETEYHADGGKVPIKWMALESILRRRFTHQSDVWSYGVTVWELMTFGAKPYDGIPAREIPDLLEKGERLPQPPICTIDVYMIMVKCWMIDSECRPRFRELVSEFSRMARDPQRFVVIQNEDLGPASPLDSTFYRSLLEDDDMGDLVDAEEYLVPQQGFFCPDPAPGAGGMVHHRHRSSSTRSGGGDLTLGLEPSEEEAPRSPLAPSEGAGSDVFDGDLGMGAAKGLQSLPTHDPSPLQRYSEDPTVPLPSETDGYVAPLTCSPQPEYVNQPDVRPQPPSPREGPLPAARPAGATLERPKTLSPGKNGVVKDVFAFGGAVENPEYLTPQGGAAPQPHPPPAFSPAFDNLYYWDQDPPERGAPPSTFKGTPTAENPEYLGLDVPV
In short: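 IL-3-independent mouse Ba/F3 line stably transduced with human ERBB2 YVMA, seeded at 3000 cells/well, exposed to serially diluted compound (≤0.1% DMSO) for 72 h at 37° C. ATP read by CellTiter Glo luminescence, normalised to DMSO and media-only controls; sigmoidal nonlinear regression fit.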

| Compound | IC50 [1] | IC50 [2] | GI50 (Ba/F3 ERBB2 YVMA) |
| --- | --- | --- | --- |
| C=CC(=O)N1CCN(c2cc3c(Nc4ccc(Cc5ccc6c(c5)ncn6C)c(C)c4)ncnc3cn2)[C@@H](C)C1 [Compound 86, 1-[(3S)-3-methyl-4-[4-({3-methyl-4-[(1-methyl-1,3-benzodiazol-5-yl)methyl]phenyl}amino)pyrido[3,4-d]pyrimidin-6-yl]piperazin-1-yl]prop-2-en-1-one] | 48.4 nM | 3180 nM | 20.5 nM |
| C=CC(=O)N1CCN(c2ccc3ncnc(Nc4ccc(Oc5ccc(C)nc5)c(C)c4)c3n2)CC1 [Compound 91, 1-(4-(4-(3-methyl-4-(6-methylpyridin-3-yloxy)phenylamino)pyrido[3,2-d]pyrimidin-6-yl)piperazin-1-yl)prop-2-en-1-one] | 21.9 nM | 329 nM | 17.5 nM |
| Cc1cc(Nc2ncnc3ccc(N4CCN(C(=O)/C=C/CN(C)C)CC4)c(F)c23)ccc1Cc1ccn2ncnc2c1 [Compound 92, (2E)-4-(dimethylamino)-1-(4-{5-fluoro-4-[(3-methyl-4-{[1,2,4]triazolo[1,5-a]pyridin-7-ylmethyl}phenyl)amino]quinazolin-6-yl}piperazin-1-yl) but-2-en-1-one] | 31.6 nM | > 10000 nM | 110 nM |
| Cc1cc(Nc2ncnc3ccc(N4CCN(C(=O)/C=C/CN(C)C)[C@H](C)C4)c(F)c23)ccc1Cc1ccn2ncnc2c1 [Compound 93, (2E)-4-(dimethylamino)-1-[(2R)-4-{5-fluoro-4-[(3-methyl-4-{[1,2,4]triazolo[1,5-a]pyridin-7-ylmethyl}phenyl)amino]quinazolin-6-yl}-2-methylpiperazin-1-yl]but-2-en-1-one formate] | 30.7 nM | > 10000 nM | 49 nM |
| Cc1cc(Nc2ncnc3ccc(N4CCN(C(=O)/C=C/CN(C)C)CC4C)c(F)c23)ccc1Cc1ccn2ncnc2c1 (stereo not drawn) [Compound 94, (E)-1-(4-(4-((4-([1,2,4]triazolo[1,5-a]pyridin-7-ylmethyl)-3-methylphenyl)amino)-5-fluoroquinazolin-6-yl)-3-methylpiperazin-1-yl)-4-(dimethylamino)but-2-en-1-one] | 160 nM | > 10000 nM | > 500 nM |
| C=CC(=O)N1CCN(c2ncc3ncnc(Nc4ccc(Cc5ccc6c(c5)ncn6C)c(C)c4)c3n2)C[C@H]1C [Compound 96, (R)-1-(2-methyl-4-(8-((3-methyl-4-((1-methyl-1H-benzo[d]imidazol-5-yl)methyl)phenyl)amino)pyrimido[5,4-d]pyrimidin-2-yl)piperazin-1-yl)prop-2-en-1-one] | 63.1 nM | 7290 nM | 12.5 nM |
| C=CC(=O)N1CCN(c2cc3c(Nc4ccc(Cc5ccc6c(c5)ncn6C)c(C)c4)ncnc3cn2)C[C@H]1C [Compound 97, (R)-1-(2-methyl-4-(4-((3-methyl-4-((1-methyl-1H-benzo[d]imidazol-5-yl)methyl)phenyl)amino)pyrido[3,4-d]pyrimidin-6-yl)piperazin-1-yl)prop-2-en-1-one] | 24.2 nM | 4950 nM | 52.4 nM |
| C=CC(=O)N1CCN(c2ccc3ncnc(Nc4ccc(O[C@@H]5CCCOC5)c(C)c4)c3n2)CC1 [Compound 98, 1-{4-[4-({3-methyl-4-[(3R)-oxan-3-yloxy]phenyl}amino)pyrido[3,2-d]pyrimidin-6-yl]piperazin-1-yl}prop-2-en-1-one] | 65.6 nM | 186 nM | 64.4 nM |
| C=CC(=O)N1CCN(c2cc3c(Nc4ccc(CN5CCn6ncnc6C5)c(C)c4)ncnc3cn2)CC1 [Compound 99, 1-(4-{4-[(3-methyl-4-{5H,6H,8H-[1,2,4]triazolo[1,5-a]pyrazin-7-ylmethyl}phenyl)amino]pyrido[3,4-d]pyrimidin-6-yl}piperazin-1-yl)prop-2-en-1-one] | 227 nM | > 10000 nM | > 500 nM |
| C=CC(=O)N1CCN(c2cc3c(Nc4ccc(O[C@@H]5CCCOC5)c(C)c4)ncnc3cn2)CC1 [Compound 100, 1-{4-[4-({3-methyl-4-[(3R)-oxan-3-yloxy]phenyl}amino)pyrido[3,4-d]pyrimidin-6-yl]piperazin-1-yl}prop-2-en-1-one] | 63.7 nM | 337 nM | 98.5 nM |
| C=CC(=O)N1CCN(c2ccc3ncnc(Nc4ccc(CN5CCn6ncnc6C5)c(C)c4)c3c2)CC1 [Compound 101, 1-(4-{4-[(3-methyl-4-{5H,6H,8H-[1,2,4]triazolo[1,5-a]pyrazin-7-ylmethyl}phenyl)amino]quinazolin-6-yl}piperazin-1-yl)prop-2-en-1-one] | 99 nM | > 10000 nM | > 500 nM |
| C=CC(=O)N1CCN(c2ccc3ncnc(Nc4ccc(O[C@@H]5CCCOC5)c(C)c4)c3c2)CC1 [Compound 102, 1-{4-[4-({3-methyl-4-[(3R)-oxan-3-yloxy]phenyl}amino)quinazolin-6-yl]piperazin-1-yl}prop-2-en-1-one] | 47.6 nM | 244 nM | 43.9 nM |

Compounds with a lower IC50 [1], results first:

| IC50 [1] | IC50 [2] | Compound | GI50 (Ba/F3 ERBB2 YVMA) |
| --- | --- | --- | --- |
| 12.9 nM | 2420 nM | Cc1cc(Nc2ncnc3ccc(N4CCN(C(=O)/C=C/CN(C)C)CC4)nc23)ccc1Cc1ccn2ncnc2c1 [Compound 87, (E)-1-(4-(4-((4-([1,2,4]triazolo[1,5-a]pyridin-7-ylmethyl)-3-methylphenyl)amino)pyrido[3,2-d]pyrimidin-6-yl)piperazin-1-yl)-4-(dimethylamino)but-2-en-1-one] | 17.3 nM |
| 16.6 nM | 729 nM | C=CC(=O)N1CCN(c2ccc3ncnc(Nc4ccc(Oc5ccc6c(c5)ncn6C)c(C)c4)c3c2)CC1 [Compound 88, 1-{4-[4-({3-methyl-4-[(1-methyl-1,3-benzodiazol-5-yl)oxy]phenyl}amino)quinazolin-6-yl]piperazin-1-yl}prop-2-en-1-one] | 22 nM |
| 19 nM | 5380 nM | C=CC(=O)N1CCN(c2ccc3ncnc(Nc4ccc(Oc5ccc6c(c5)ncn6C)c(C)c4)c3c2)[C@@H](C)C1 [Compound 89, 1-[(3S)-3-methyl-4-[4-({3-methyl-4-[(1-methyl-1,3-benzodiazol-5-yl)oxy]phenyl}amino)quinazolin-6-yl]piperazin-1-yl]prop-2-en-1-one] | 152 nM |
| 14.4 nM | 3230 nM | C=CC(=O)N1CCN(c2ccc3ncnc(Nc4ccc(Oc5ccn6ncnc6c5)c(C)c4)c3c2)[C@@H](C)C1 [Compound 90, (S)-1-(4-(4-((4-([1,2,4]triazolo[1,5-a]pyridin-7-yloxy)-3-methylphenyl)amino)quinazolin-6-yl)-3-methylpiperazin-1-yl)prop-2-en-1-one] | 12 nM |
| 21.2 nM | 1800 nM | C=CC(=O)N1CC2CCC(C1)N2c1ccc2ncnc(Nc3ccc(Cc4ccn5ncnc5c4)c(C)c3)c2n1 [Compound 95, 1-(8-{4-[(3-methyl-4-{[1,2,4]triazolo[1,5-a]pyridin-7-ylmethyl}phenyl)amino]pyrido[3,2-d]pyrimidin-6-yl}-3,8-diazabicyclo[3.2.1]octan-3-yl)prop-2-en-1-one] | 6.96 nM |
| 16 nM | 2770 nM | C=CC(=O)N1CCN(c2cc3c(Nc4ccc(Cc5ccn6ncnc6c5)c(C)c4)ncnc3cn2)CC1 [Compound 103, 1-(4-(4-((4-([1,2,4]triazolo[1,5-a]pyridin-7-ylmethyl)-3-methylphenyl)amino)pyrido[3,4-d]pyrimidin-6-yl)piperazin-1-yl)prop-2-en-1-one] | 24.9 nM |
